{"source": "paper PMC4317238", "about": "(Pharmacology Research & Perspectives, 2015)", "key": {"NPSR(−/−) mice": {"tested_on": "NPSR(−/−) mice", "test": "Recovery of righting reflex", "assay_type": "in vivo, mouse (congenic to CD-1)", "conditions": "diazepam 15 mg/kg i.p."}, "[1]": {"target": "T1, mouse NPS receptor (NPSR) (Mus musculus, UniProt Q8BZP8)", "T1 sequence (Q8BZP8 1-371)": "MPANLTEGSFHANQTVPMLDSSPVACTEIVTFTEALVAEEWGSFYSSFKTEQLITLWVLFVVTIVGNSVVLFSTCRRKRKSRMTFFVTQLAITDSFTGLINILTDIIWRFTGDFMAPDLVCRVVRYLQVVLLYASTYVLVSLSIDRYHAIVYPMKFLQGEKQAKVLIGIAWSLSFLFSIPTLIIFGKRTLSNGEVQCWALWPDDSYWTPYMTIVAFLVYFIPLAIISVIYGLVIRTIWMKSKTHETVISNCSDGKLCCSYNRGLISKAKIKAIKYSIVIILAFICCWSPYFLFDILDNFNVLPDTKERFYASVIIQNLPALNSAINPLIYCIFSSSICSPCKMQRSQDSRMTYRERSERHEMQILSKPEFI", "test": "Calcium mobilization assay, agonist", "assay_type": "cell-based", "conditions": "HEK293mNPSR; mean ± SEM"}, "[2]": {"conditions": "cited from earlier work"}, "their receptors": {"tested_on": "their receptors", "conditions": "ref Rizzi et al. 2014; Ruzza et al. 2014; cited from earlier work"}}, "note": "Ends that are not written are not given here.", "data": [{"compound": "CN1C(=O)CN=C(c2ccccc2)c2cc(Cl)ccc21", "note": "[diazepam]", "values": [{"measurement": "sensitivity to diazepam, NPSR wild type vs. knockout", "setting": "NPSR(−/−) mice", "result": "no differences were measured"}]}, {"compound": "SFRNGVGTGMKKTSFQRAKS [NPS, neuropeptide S]", "values": [{"measurement": "Emax (increase in intracellular calcium)", "setting": "[1]", "result": "417 ± 34", "unit": "% over the basal levels"}]}, {"compound": "nociceptin/orphanin FQ [N/OFQ]", "values": [{"measurement": "duration of action, N/OFQ", "setting": "[2]; ref Rizzi et al. 2014", "result": "~20", "unit": "min"}, {"measurement": "potency relative to PWT derivative, calcium mobilization", "setting": "their receptors", "result": "more potent than their PWT derivatives"}]}, {"compound": "substance P [SP]", "values": [{"measurement": "duration of action, SP and PWT2-SP", "setting": "[2]; ref Ruzza et al. 2014", "result": "~5", "unit": "min"}, {"measurement": "potency relative to PWT derivative, calcium mobilization", "setting": "their receptors", "result": "more potent than their PWT derivatives"}]}, {"compound": "neurokinin A [NK-A]", "values": [{"measurement": "potency relative to PWT derivative, calcium mobilization", "setting": "their receptors", "result": "more potent than their PWT derivatives"}]}]}
